Reference: patent US9587002B2, “Sequence of nucleotides and peptides GSE 24.2 of dyskerin, which can induce telomerase activity, method for obtaining same, therapeutic compositions and applications thereof” (CONSEJO SUPERIOR DE INVESTIGACIONES CIENTIFICAS, priority 2005, dated 2017)

Tests used:
293T cells = test: Cell viability of 293T cell lines treated with cisplatin (crystal violet); format: cell-based, human; settings: 293T cells stably expressing the construct vs empty vector pLNCX; cisplatin 0-100 μg/ml, 72 hours
Experimental: FIG. 2.—Cell viability and activation of the JNK and p38 death pathways in 293T cell lines: pLNCX and 24.2, treated with cisplatin. A) Cell viability. After seeding the 293T cells: expressing the empty vector (pLNCX) and GSE 24.2 (24.2) in 24-well plates, they were incubated with concentrations between 0-100 μg/ml of cisplatin. The cell viability was measured by means of the crystal violet technique after 72 hours of exposure to the drug. The data represent the mean of two experiments performed in quadruplicate. B) Activation kinetics. Subsequently, the activation of JNK and p38 was studied using antibodies that specifically recognise the active forms. As a load control, the levels of JNK-1 were detected.
FIG. 4.—Viability of the 293T cell lines: pLNCX, 24.2, DSK5′ and DSK treated with cisplatin. The cell lines described above (pLNCX and 24.2), the DSK 5′ cell line, which expresses a fragment of dyskerin described in the preceding figure, and a fourth one that overexpresses the complete cDNA of dyskerin (DSK) have been used. The viability was analyzed as shown in FIG. 1 A. The data represent the mean of two experiments performed in quadruplicate. […]
Growth curves. […] The number of cells was determined by estimating the absorbance at 595 nm. […]

hTERT promoter [1] = test: hTERT-luc reporter (luciferase) assay in 293T cells; format: cell-based, human; settings: 293T cells transiently transfected with construct vs empty vector; hTERT-luc, 24 hours
Experimental: FIG. 8.—Activity of the hTERT promoter in the 293T cell lines: pLNCX and 24.2 and in 293T cells transiently transfected with the pLNCX-24.2 construct and the pLNCX empty plasmid. A) Both the pLNCX and the 24.2 cells were transiently transfected with 0.25 μg of the hTERT-luc reporter vector. The cells were seeded in 60-mm plates. After 24 hours of transfection, the cells were lysed and the luciferase activity of 10 μg of total protein was quantified. As a transfection control, the cells were co-transfected with a reporter vector, CMV-Renilla. B) The 293T cells were transfected with the pLNCX vector and the 24.2 plasmid (5 μg), and both were co-transfected with 0.25 μg of the hTERT-luc reporter vector. After seeding the cells as in A, they were transfected with pLNCX and 24.2, and co-transfected with the hTERT-luc reporter vector; subsequently, they were treated as in A. As a transfection control, the CMV-Renilla reporter vector was used. The data correspond to the ratio of relative units of luciferase with respect to non-transfected cells. Each point represents the mean±the standard deviation obtained from 3 independent experiments. C) The 293T cells were transfected with the different GSE 24.4, DSK, TRUB I, TRUB II constructs and the pLNCX empty plasmid (5 μg), and co-transfected with 0.25 μg of the hTERT-luc reporter vector. The cells were seeded in 60-mm plates; after 24 hours of transfection, the cells were lysed and the luciferase activity of 10 μg of total protein was quantified. As a transfection control, the cells were co-transfected with a CMV-Renilla reporter vector. The data correspond to the ratio of relative units of luciferase with respect to non-transfected cells. Each point represents the mean±the standard deviation obtained from 3 independent experiments.
FIG. 9.—Activity of the hTERT promoter following treatment with cisplatin. A) Both the pLNCX cell line and the 24.2 cell line were transiently transfected with 0.25 μg of the hTERTIuc reporter vector. After 24 hours of transfection, they were treated with 3 μg/ml of cisplatin for 8 hours. The cells were seeded in 60-mm plates; after 24 hours of transfection and following treatment with cDDP, the cells were lysed and the luciferase activity of 10 μg of total protein was quantified. As a transfection control, the cells were co-transfected with a CMV-Renilla reporter vector. B) 293T cells which, after being transiently transfected with pLNCX and 24.2, were co-transfected with 0.25 μg of the hTERT-luc reporter vector and treated as in A. After seeding the cells as in A, they were transfected with pLNCX and 24.2, and co-transfected with the hTERT-luc reporter vector; subsequently, they were treated as in A. As a transfection control, the CMV-Renilla reporter vector was used. The data correspond to the ratio of relative units of luciferase with respect to non-transfected cells. Each point represents the mean±the standard deviation obtained from 3 independent experiments.
A) The 293T cells were co-transfected with different constructs (10 μg/DNA per million cells) and the hTERT-luc reporter (1 μg per million cells). The specified cell lines were co-transfected with the hTERT-luc reporter and different quantities of the Mad/myc expression vector. (B) The specified cell lines were co-transfected with the HIV-luc reporter and with different quantities of the Mad/myc expression vector. After 24 h of transfection, the cells were stimulated with 50 ng/ml of TNF-α for 6 hours and the luciferase activity was analysed as described above. CMV-Renilla (0.1 μg/ml per million cells) was used as a control for the transfection efficiency. The data represent the mean of two experiments performed in quadruplicate.
The pseudouridine synthase TRUB domain of dyskerin comprises two structural subdomains: the Trub I and II motifs (Zucchini et al., 2003). These two domains are critical to maintain the global protein structure of dyskerin. […]

hTERT promoter [2] = test: hTERT-luc reporter assay in VA13 cells; format: cell-based; settings: co-transfection with hTERT-luc, 24 h
Experimental: FIG. 10.—Telomerase activity and expression levels of hTERT and hTR in the cells of patients with dyskeratosis congenita and in VA13 cells transiently transfected with the 24.2 plasmid or the pLNCX empty vector. A) Telomerase activity measured by means of the TRAP assay in the cells of patients with dyskeratosis congenita (DC-1, DC-2 and DC-3) and in the carrier parent (DC-C) following electroporation of 45 μg of the pLNCX empty plasmid (−) or the pLNCX 24.2 vector (+) by 15 million cells. B) RT-PCR of the RNA from cells of one of the patients with dyskeratosis congenita, DC3 transfected with the empty vector and DC3 transfected with the 24.2 plasmid, using oligos specific for hTERT and hTR. As a starting RNA control, oligos for the amplification of GAPDH were used. C) Telomerase activity in VA13 cells. […] 24 hours later, the telomerase activity was analysed as described above, using dilutions of the protein extracts from each transfection. […] RNA levels were detected as described above. […] After 24 h of transfection, the luciferase activity was analyzed as described above. […]
Luciferase assay. The transcriptional regulation of hTERT was measured by means of the Luciferase reporter gene, preceded by a 3,402-pb sequence of the hTERT promoter. […] The cell lysates were centrifuged and the expression of luciferase was quantified with 10 μg of protein from the supernatant, using a Berthold luminometer. […]

For “DSK 5′: construct containing the first 500 nucleotides of human dyskerin, cloned in pLNCX [reference compound]”, the “cell viability in response to cisplatin” value (293T cells) was “do not have any activity whatsoever”.

In the case of “Trub I: fragment of GSE 24.2 containing the Trub I domain (SEQ ID NO11, peptide SEQ ID NO12) (DNA GGTTTCATTAATCTTGACAAGCCCTCTAACCCCTCTTCCCATGAGGTGGTAGCC; expressed or natural sequence; listed as Homo sapiens)”, the “activity of the hTERT promoter, transient expression” value (hTERT promoter [1]) is reported as “act by activating the expression of the hTERT promoter” and the “activity of the hTERT promoter in VA13 cells” value (hTERT promoter [2]) is reported as “activated the hTERT promoter”.

B1: Trub II: fragment of GSE 24.2 containing the Trub II domain (SEQ ID NO13, peptide SEQ ID NO14) (nucleic acid, listed as Homo sapiens)
DNA: CACAGTGGTACTCTGGATCCCAAGGTGACTGGTTGTTTAATCGTGTGCATAGAACGAGCCACTCGCTTGGTGAAG
modifications: expressed or natural sequence
B1 was tested, and the “activity of the hTERT promoter, transient expression” value (hTERT promoter [1]) was “act by activating the expression of the hTERT promoter”.
